Measurements: patent publication US20250243190A1, “NEW DEUTERATED RORGAMMA/RORGAMMAT INVERSE AGONISTS” (IMMUNIC AG, priority 2022, published 2025)

Key:
[1] = Microsomal stability, mouse liver microsomes; conditions: 60 min
Procedure: (§1) The conversion to the metabolite was monitored by HPLC-MS/MS. Verapamil served as positive control.
The metabolism was monitored by HPLC-MS/MS.
Verapamil served as positive control. The intrinsic clearance was calculated from the measured remaining compound values.

SARS-CoV-2 = test: Antiviral activity on SARS-CoV-2, viral replication (YFP) assay; type: cell-based; conditions: Severe acute respiratory syndrome coronavirus 2, read-out: EC50 range
From the text: (§2) The assay for viral replication (YFP) and the cell viability assay has been described in general in Pathogens 2021; 10:1076 and applied to compounds of the present invention furnished the following results: […]

[2] = Cell viability assay accompanying the SARS-CoV-2 assay; type: cell-based; conditions: cell viability assay of the SARS-CoV-2 test
From the text: as §2

influenza A = test: Antiviral activity on influenza A; type: cell-based; conditions: Influenza A virus; read-out: EC50 range
From the text: (§3) The assay for measuring influenza A has been described in general in Antimicrob. Agents Chemother. 2015; 59:2062 and applied to compounds of the present invention furnished the following representative results: […]

[3] = CC50 accompanying the influenza A assay; type: cell-based; conditions: influenza A test
From the text: as §3

RORγt = molecular target: T1, RORγt (Homo sapiens, UniProt P51449); test: Indigo Biosciences Human RAR-related Orphan Receptor, Gamma Reporter Assay (in vitro inhibition of RORγt); type: cell-based; conditions: RORγt reporter cells, luciferase readout, 22-24 h incubation; read-out: IC50 range
T1 sequence (P51449 269-508 limits assumed): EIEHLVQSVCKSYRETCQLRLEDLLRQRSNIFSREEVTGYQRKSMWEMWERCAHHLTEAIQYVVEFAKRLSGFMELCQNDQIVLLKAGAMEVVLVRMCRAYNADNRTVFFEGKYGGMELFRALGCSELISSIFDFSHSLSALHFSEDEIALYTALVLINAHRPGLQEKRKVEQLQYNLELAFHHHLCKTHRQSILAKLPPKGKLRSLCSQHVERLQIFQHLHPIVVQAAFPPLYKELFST
Procedure: The in vitro inhibition of RORγt was measured using Indigo Biosciences Human RAR-related Orphan Receptor, Gamma Reporter Assay System (Product #IB304001-32) as described in the technical manual. In brief, 200 μL of Reporter Cells is dispensed into wells of the assay plate and preincubated for 4-6 h. Following the pre-incubation period, culture media are discarded and 200 µL/well of the prepared 1×-concentration treatment media are added. Following 22-24 h incubation, treatment media are discarded and Luciferase Detection Reagent is added. The intensity of light emission (in units of ‘Relative Light Units’; RLU) from each assay well is quantified using a plate-reading luminometer. Average values of RLU were determined for each treatment concentration. Non-linear regression analyses were performed and IC50 values determined using GraphPad Prism software. Provided inverse-agonists ursolic acid served as positive control.

[4] = Mouse pharmacokinetics, oral or intravenous cassette dosing; type: in vivo, mice (C57BL/6J); conditions: C57BL/6J, whole blood; for AUC(0-t): read-out: AUC0-24 h; for bioavailability: 5 mg/kg oral vs 1 mg/kg intravenous, read-out: F (bioavailability)
Procedure: The pharmacokinetics of the compounds of the present invention was evaluated in 3 male and 3 female mice (C57BL/6J, 8 week old) after oral or intravenous cassette dosing to assess the oral bioavailability. Dose was 5 mg/kg (oral) and 1 mg/kg (intravenous), application volume was 5 mL/kg (oral) and 0.5 mL/kg (intravenous), vehicle was 5% solutol, 95% NaCl solution (at 0.9% saline concentration) for oral and 5% solutol, 5% Ethanol, 90% NaCl solution (at 0.9% saline concentration) for intravenous. At each designated time point (0.25, 0.5, 1, 2, 4, 8 and 24 h after dosing), 20 μL whole blood were collected from the tail vein into Li-heparin tubes, frozen on dry ice within 1-2 minutes of sampling and stored at −20° C. until processed for LC-MS analysis. The obtained data is as follows:
(§4) The pharmacokinetics of additional compounds of the present invention was evaluated in 3 female mice (C57BL/6J, 8 week old) after oral cassette dosing. Dose was 5 mg/kg, application volume was 5 mL/kg, vehicle was 5% solutol, 95% NaCl solution (at 0.9% saline concentration). At each designated time point (0.5, 1, 2, 4, 8 and 24 h after dosing), 20 μL whole blood were collected from the tail vein into Li-heparin tubes, frozen on dry ice within 1-2 minutes of sampling and stored at −20° C. until processed for LC-MS analysis. The obtained data is as follows:
as §4, with “(0.25, 0.5,” for “(0.5,”, “4 and” for “4,”, “8” for “8 and 24”, “analysis.” for “analysis. The obtained data is as follows:”

[5] = system: respiratory syncytial virus (RSV, A2 strain expressing eGFP, Long strain or RSV-B); test: Antiviral activity on RSV in HEp-2 cells; type: cell-based; conditions: human respiratory syncytial virus, HEp-2, 45 h, read-out: IC50 (50% inhibitory concentration)
Procedure: One day before infection, 20,000 HEp-2 cells per well were seeded in a 96-well plate. Example 100 or DMSO vehicle controls were applied on cell monolayers at indicated concentrations and infected immediately after treatment with respiratory syncytial virus (RSV, A2 strain expressing eGFP, Long strain or RSV-B) at MOI 0.001. Cells were incubated for 45 h at 37° C. and 5% CO2. RSV infection was quantified either by counting green fluorescent infected cells using CTL-Immunospot reader or by ICC staining using RSV-targeting antibody. Shown as mean values of triplicate wells normalized to the corresponding vehicle-treated controls ±SD.

[6] = Microsomal stability, human liver microsomes
Procedure: as §1
(§5) The metabolism was monitored by HPLC-MS/MS. Verapamil served as positive control. The intrinsic clearance was calculated from the measured remaining compound values.
as §5

[7] = Rat pharmacokinetics, oral or intravenous cassette dosing; type: in vivo, rats (strain Wistar RjHAN); conditions: for AUC(0-inf) / AUC(0-t) / C0 / CL/F / Cmax / bioavailability: Wistar RjHAN, rat, plasma; for bioavailability: po 5 mg/kg vs iv 1 mg/kg
Procedure: The pharmacokinetics of the deuterated compounds of the present invention was evaluated in 3 male and 3 female rats (strain Wistar RjHAN, 7-8 week old) after oral or intravenous cassette dosing to asses the oral bioavailability. Rats are provided with a catheter in the jugular vein (2-3 days prior to blood sampling). At each designated time point (1, 2, 4, 8 and 24 h after dosing), 100 μL blood were collected into Li-heparin tubes, stored on ice until centrifugation (10 minutes at 3000 g, 4° C.) and plasma was prepared within 45 min after collection, frozen at −20° C. and stored at this temperature until processed for LC-MS analysis.

[8] = Microsomal stability, rat liver microsomes; conditions: 60 min
Procedure: as §1, §5

[9] = 3 female mice, 5 mg/kg oral cassette, sampling 0.5-24 h
[10] = female mice, 5 mg/kg oral, cassette
[11] = male mice, 5 mg/kg oral, cassette

[2H]C([2H])([2H])OC(=O)c1c(-c2c(F)cccc2Cl)noc1-c1cnn(-c2cccc(Cl)c2)c1C(F)(F)F [Example 100, Methyl-d3 3-(2-chloro-6-fluorophenyl)-5-(1-(3-chlorophenyl)-5-(trifluoromethyl)-1H-pyrazol-4-yl)isoxazole-4-carboxylate]
microsomal CLint ([1]; male, CD-1, mouse, mouse liver microsomes 10003 CD-1, male (Corning), Example 100 experiment): 24.4 µL/min/mg | EC50 (SARS-CoV-2): < 0.1 µM | CC50 [2]: 50 µM | EC50 (influenza A): < 0.1 µM | CC50 [3]: 82 µM | IC50 (RORγt): < 0.01 µM | Cmax [4, 9]: 50.5 ng/mL | half-life [4, 9]: 6.4 h | AUC(0-t) [4, 9]: 201 ng·h/mL | IC50 [5]: < 0.05 µM

[2H]C([2H])(CC(C)(C)O)n1ncc(-c2onc(-c3c(F)cccc3Cl)c2-c2ncccn2)c1C(F)(F)F [Example 3, 4-(4-(3-(2-Chloro-6-fluorophenyl)-4-(pyrimidin-2-yl)isoxazol-5-yl)-5-(trifluoromethyl)-1H-pyrazol-1-yl)-2-methylbutan-4,4-d2-2-ol]
microsomal CLint ([1]; female, mouse, mouse liver microsomes batch 4338001 female (Corning)): 43.9 µL/min/mg | microsomal CLint ([1]; female, mouse, mouse liver microsomes batch MDO female (Bioreclamation IVT)): 50.3 µL/min/mg | microsomal CLint ([1]; male, mouse, mouse liver microsomes batch 0010003 male (Corning)): 24 µL/min/mg | EC50 (SARS-CoV-2): < 0.1 µM | CC50 [2]: 22 µM | microsomal CLint ([6]; both): 2.2 µL/min/mg | microsomal CLint ([6]; male): 1.1 µL/min/mg | AUC(0-inf) ([7]; female rats, iv 1 mg/kg): 3780 ng·h/mL | AUC(0-t) ([7]; female rats, iv 1 mg/kg): 3660 ng·h/mL | C0 ([7]; female rats, iv 1 mg/kg): 2090 ng/mL | AUC(0-inf) ([7]; female rats, po 5 mg/kg): 2950 ng·h/mL | AUC(0-t) ([7]; female rats, po 5 mg/kg): 2930 ng·h/mL | CL/F ([7]; female rats, po 5 mg/kg): 132 mL/min/kg | Cmax ([7]; female rats, po 5 mg/kg): 629 ng/mL | bioavailability ([7]; female rats): 16% | AUC(0-inf) ([7]; male rats, iv 1 mg/kg): 3970 ng·h/mL | AUC(0-t) ([7]; male rats, iv 1 mg/kg): 3720 ng·h/mL | C0 ([7]; male rats, iv 1 mg/kg): 2460 ng/mL | AUC(0-inf) ([7]; male rats, po 5 mg/kg): 692 ng·h/mL | AUC(0-t) ([7]; male rats, po 5 mg/kg): 649 ng·h/mL | CL/F ([7]; male rats, po 5 mg/kg): 343 mL/min/kg | Cmax ([7]; male rats, po 5 mg/kg): 215 ng/mL | bioavailability ([7]; male rats): 3.5% | t1/2z ([7]; female rats, iv 1 mg/kg): 6.6 h | t1/2z ([7]; female rats, po 5 mg/kg): 3.2 h | t1/2z ([7]; male rats, iv 1 mg/kg): 7.2 h | t1/2z ([7]; male rats, po 5 mg/kg): 1.9 h | microsomal CLint ([8]; rat liver microsomes batch 1910100 (Xenotech)): 31.4 µL/min/mg | microsomal CLint ([8]; rat liver microsomes batch 4085002 (Corning)): 29.7 µL/min/mg | microsomal CLint ([8]; rat liver microsomes batch 9078001 (Corning)): 30.2 µL/min/mg | IC50 (RORγt): 0.01 to 0.1 µM | bioavailability ([4]; female mice): 34% | half-life [4, 10]: 1.5 h | AUC(0-t) [4, 10]: 771 ng·h/mL | Cmax ([4]; female mice, 5 mg/kg oral, cassette, sampling to 24 h): 301 ng/mL | bioavailability ([4]; male mice): 93% | half-life [4, 11]: 2.3 h | AUC(0-t) [4, 11]: 1040 ng·h/mL | Cmax ([4]; male mice, 5 mg/kg oral, cassette, sampling to 24 h): 392 ng/mL

[2H]C([2H])(OC1CC1)c1c(-c2c(F)cccc2Cl)noc1-c1cnn(-c2cccc(Cl)c2)c1C(F)(F)F [Example 102, 3-(2-Chloro-6-fluorophenyl)-5-(1-(3-chlorophenyl)-5-(trifluoromethyl)-1H-pyrazol-4-yl)-4-(cyclopropoxymethyl-d2)isoxazole]
EC50 (SARS-CoV-2): < 0.1 µM | CC50 [2]: 17 µM | EC50 (influenza A): 0.1 to 1 µM | microsomal CLint ([6]; both): 6.7 µL/min/mg | CC50 [3]: > 100 µM | microsomal CLint ([8]; rat liver microsomes 9078001 (Corning), Example 102 experiment): 29.4 µL/min/mg | IC50 (RORγt): 0.01 to 0.1 µM | Cmax [4, 9]: 272 ng/mL | half-life [4, 9]: 7.2 h | AUC(0-t) [4, 9]: 970 ng·h/mL
